In this test the target is T1, human HSL (Homo sapiens, UniProt Q05469).
T1 construct: generate a full length human HSL ORF with a 3′-His6 tag; made in house; host or cells: High 5 insect cells (baculovirus, pFast-BAC)
T1 sequence (Q05469 1-1076): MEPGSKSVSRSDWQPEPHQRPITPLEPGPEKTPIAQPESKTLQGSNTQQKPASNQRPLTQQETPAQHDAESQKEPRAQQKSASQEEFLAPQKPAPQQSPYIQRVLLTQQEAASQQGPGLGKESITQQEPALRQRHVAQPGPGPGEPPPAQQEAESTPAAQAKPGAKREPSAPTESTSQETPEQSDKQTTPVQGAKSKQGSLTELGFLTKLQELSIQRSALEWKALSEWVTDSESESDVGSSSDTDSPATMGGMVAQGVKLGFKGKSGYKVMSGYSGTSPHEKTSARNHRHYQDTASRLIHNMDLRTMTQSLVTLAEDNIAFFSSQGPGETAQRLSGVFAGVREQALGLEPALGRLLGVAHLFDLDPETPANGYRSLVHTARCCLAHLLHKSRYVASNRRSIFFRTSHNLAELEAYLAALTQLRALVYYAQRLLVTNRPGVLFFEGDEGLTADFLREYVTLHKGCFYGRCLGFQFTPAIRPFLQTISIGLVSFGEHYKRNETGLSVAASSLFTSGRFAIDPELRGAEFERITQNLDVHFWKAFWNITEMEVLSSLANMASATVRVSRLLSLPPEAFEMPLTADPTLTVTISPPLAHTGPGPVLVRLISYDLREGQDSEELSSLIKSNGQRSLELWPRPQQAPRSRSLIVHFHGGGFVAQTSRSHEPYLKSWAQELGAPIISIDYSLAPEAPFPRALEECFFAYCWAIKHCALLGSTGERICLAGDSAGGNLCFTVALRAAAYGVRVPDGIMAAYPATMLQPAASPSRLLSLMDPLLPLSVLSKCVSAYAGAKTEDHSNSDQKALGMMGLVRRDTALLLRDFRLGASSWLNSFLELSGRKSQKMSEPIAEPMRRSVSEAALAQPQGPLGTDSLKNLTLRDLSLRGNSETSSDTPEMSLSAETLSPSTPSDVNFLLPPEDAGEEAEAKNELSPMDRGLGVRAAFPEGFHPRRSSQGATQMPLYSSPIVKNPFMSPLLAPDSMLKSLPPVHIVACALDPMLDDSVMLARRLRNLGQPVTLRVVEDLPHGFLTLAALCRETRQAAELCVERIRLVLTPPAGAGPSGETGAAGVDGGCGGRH
Briefly: Human Hormone-Sensitive Lipase (HSL) enzyme inhibition assay (colorimetric, DMPT substrate). To be noted: human full length HSL-His6, 2,3-dimercapto-1-propanol tributyrate substrate, 37° C. 20 minutes, absorbance at 405 nm; read-out: HSL hum IC50. In kind it is biochemical. Put shortly: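 Full-length human HSL with C-terminal His6, expressed in baculovirus-infected High 5 cells and Ni-NTA purified, was added (15 ug/ml stock) to 1.5 mM DMPT in 100 mM MOPS pH 7.2, 0.2 mg/ml fatty acid-free BSA containing compound. After 20 min at 37 °C, DTNB with SDS/Triton X-100 was added; A405 read after 15 min at RT.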
On to `C=CC[C@]1(O)CC[C@]2(CCN(c3ccc(O[C@H](C)C(F)(F)F)cc3)C2=O)CC1` [Example 142, (5α,8α)-8-Allyl-8-hydroxy-2-[4-((R)-2,2,2-trifluoro-1-methyl-ethoxy)-phenyl]-2-aza-spiro[4.5]decan-1-one], for which the IC50 is 10 nM.

Consider `CCc1ccc(N2CC[C@]3(CC[C@@](O)(COCC(F)(F)F)CC3)C2=O)cc1` [Example 231, (5α,8α)-2-(4-Ethyl-phenyl)-8-hydroxy-8-(2,2,2-trifluoro-ethoxymethyl)-2-aza-spiro[4.5]decan-1-one], for which the IC50 is 20 nM.

`CCOC[C@]1(O)CC[C@]2(CCN(c3ccc(C(C)(C)C)cc3)C2=O)CC1` [Example 348, (5α,8α)-2-(4-tert-Butyl-phenyl)-8-ethoxymethyl-8-hydroxy-2-aza-spiro[4.5]decan-1-one]: the 50% inhibitory concentration (IC50) amounted to 10 nM.

`CC(C)(C)c1ccc(N2CCC3(CCC(C(O)C(F)(F)F)CC3)C2=O)cc1` (single isomer, unassigned) [Example 361, (5α,8α)-2-(4-tert-Butyl-phenyl)-8-(2,2,2-trifluoro-1-hydroxy-ethyl)-2-aza-spiro[4.5]decan-1-one]: the IC50 stood at 110 nM.

In the case of `CN(C)C(=O)C[C@]1(O)CC[C@]2(CCN(c3ccc(OCC(F)(F)F)cc3)C2=O)CC1` [Example 157, 2-((5α,8α)-8-Hydroxy-1-oxo-2-(4-(2,2,2-trifluoroethoxy)phenyl)-2-aza-spiro[4.5]decan-8-yl)-N,N-dimethylacetamide], the concentration for half-maximal inhibition (IC50) came to 250 nM.

Take `O=C1N(c2ccc(OCC(F)(F)F)cc2)CC[C@]12CC[C@@](O)(COc1ccccc1)CC2` [Example 240, (5α,8α)-8-Hydroxy-8-phenoxymethyl-2-[4-(2,2,2-trifluoro-ethoxy)-phenyl]-2-aza-spiro[4.5]decan-1-one]: the IC50 is 20 nM.

Regarding `CCC[C@]1(O)CC[C@]2(CCN(c3ccc(C(F)(F)F)cc3)C2=O)CC1` [Example 208, (5α,8α)-8-hydroxy-8-propyl-2-(4-(trifluoromethyl)phenyl)-2-aza-spiro[4.5]decan-1-one], the IC50 was found to be 30 nM.

Take `COCCC[C@]1(O)CC[C@]2(CCN(c3ccc(OC(F)(F)F)cc3)C2=O)CC1` [Example 90, (5α,8α)-8-Hydroxy-8-(3-methoxy-propyl)-2-(4-trifluoromethoxy-phenyl)-2-aza-spiro[4.5]decan-1-one]: the IC50 was 23 nM.

For the compound `CC(C)Oc1ccc(N2CC[C@]3(CC[C@@](O)(c4ccsc4)CC3)C2=O)cc1` [Example 211, (5α,8α)-8-hydroxy-2-(4-isopropoxyphenyl)-8-(thiophen-3-yl)-2-aza-spiro[4.5]decan-1-one], the IC50 was 10 nM.

Take `O=C1N(c2ccc(OC(F)(F)F)cc2)CC[C@]12CC=CCC2` [Example 50, 2-(4-Trifluoromethoxy-phenyl)-2-aza-spiro[4.5]dec-7-en-1-one]: the 50% inhibitory concentration (IC50) is 200 nM.

In the case of `CCCS(=O)(=O)C[C@]1(O)CC[C@]2(CCN(c3ccc(OC(C)C)nc3)C2=O)CC1` [Example 335, (5α,8α)-8-Hydroxy-2-(6-isopropoxy-pyridin-3-yl)-8-(propane-1-sulfonylmethyl)-2-aza-spiro[4.5]decan-1-one], the concentration for half-maximal inhibition (IC50) came to 50 nM.

For `COc1ccc(N2CC[C@]3(CC[C@@H](OCc4ccccc4)CC3)C2=O)cc1` [Example 3, (5α,8β)-8-Benzyloxy-2-(4-methoxy-phenyl)-2-aza-spiro[4.5]decan-1-one], the IC50 is 610 nM.

On to `CCc1ccc(N2CC[C@]3(CC[C@@H](OCc4ccccc4)CC3)C2=O)cc1` [Example 4, (5α,8β)-8-Benzyloxy-2-(4-ethyl-phenyl)-2-aza-spiro[4.5]decan-1-one], for which the half-inhibitory concentration (IC50) amounted to 240 nM.

`CCCc1ccc(N2CC[C@]3(CC[C@@](O)(CC)CC3)C2=O)cc1` [Example 83, (5α,8α)-8-Ethyl-8-hydroxy-2-(4-propyl-phenyl)-2-aza-spiro[4.5]decan-1-one]: the IC50 is 70 nM.

As for `O=C1N(c2ccc(C(F)(F)F)cc2)CC[C@]12CC[C@@](O)(COCC(F)(F)F)CC2` [Example 219, (5α,8α)-8-hydroxy-8-((2,2,2-trifluoroethoxy)methyl)-2-(4-(trifluoromethyl)phenyl)-2-aza-spiro[4.5]decan-1-one], the IC50 is 11 nM.

With `CC(C)SC[C@]1(O)CC[C@]2(CCN(c3ccc(OCC(F)(F)F)cc3)C2=O)CC1` [Example 306, (5α,8α)-8-Hydroxy-8-isopropylsulfanylmethyl-2-[4-(2,2,2-trifluoro-ethoxy)-phenyl]-2-aza-spiro[4.5]decan-1-one], the IC50 came out at 10 nM.

As to `CC(C)[C@]1(O)CC[C@]2(CCN(c3ccc(C(C)(C)C)cc3)C2=O)CC1` [Example 344, (5α,8α)-2-(4-tert-Butyl-phenyl)-8-hydroxy-8-isopropyl-2-aza-spiro[4.5]decan-1-one], the IC50 stood at 10 nM.

Regarding `C[C@@H](Oc1ccc(N2CC[C@]3(CC[C@@](O)(CO)CC3)C2=O)cc1)C(F)(F)F` [Example 145, (5α,8α)-8-Hydroxy-8-(hydroxymethyl)-2-[4-((R)-2,2,2-trifluoro-1-methyl-ethoxy)-phenyl]-2-aza-spiro[4.5]decan-1-one], the IC50 was 390 nM.

Consider `COCC#C[C@]1(O)CC[C@]2(CCN(c3ccc(OC(F)(F)F)cc3)C2=O)CC1` [Example 71, (5α,8α)-8-Hydroxy-8-(3-methoxy-prop-1-ynyl)-2-(4-trifluoromethoxy-phenyl)-2-aza-spiro[4.5]decan-1-one], for which the half-inhibitory concentration (IC50) was 40 nM.

On to `C=CC[C@]1(O)CC[C@@]2(CCN(c3ccc(O[C@H](C)C(F)(F)F)cc3)C2=O)CC1` [Example 143, (5α,8β)-8-Allyl-8-hydroxy-2-[4-((R)-2,2,2-trifluoro-1-methyl-ethoxy)-phenyl]-2-aza-spiro[4.5]decan-1-one], for which the IC50 was determined as 1480 nM.

On to `CCCS(=O)(=O)C[C@]1(O)CC[C@]2(CCN(c3ccc(OCC(F)(F)F)cc3)C2=O)CC1` [Example 305, (5α,8α)-8-Hydroxy-8-(propane-1-sulfonylmethyl)-2-[4-(2,2,2-trifluoro-ethoxy)-phenyl]-2-aza-spiro[4.5]decan-1-one], for which the 50% inhibitory concentration (IC50) was 30 nM.

Take `COCC[C@]1(O)CC[C@]2(CCN(c3ccc(OC(F)(F)F)cc3)C2=O)CC1` [Example 119, (5α,8α)-8-Hydroxy-8-(2-methoxy-ethyl)-2-(4-trifluoromethoxy-phenyl)-2-aza-spiro[4.5]decan-1-one]: the IC50 came to 30 nM.

`CCCCOC[C@]1(O)CC[C@@]2(CCN(c3ccc(OCC(F)(F)F)cc3)C2=O)CC1` [Example 237, (5α,8β)-8-Butoxymethyl-8-hydroxy-2-[4-(2,2,2-trifluoro-ethoxy)-phenyl]-2-aza-spiro[4.5]decan-1-one]: the IC50 came to 270 nM.

`CC(C)[C@]1(O)CC[C@]2(CCN(c3ccc([C@@H](O)C(F)(F)F)cc3)C2=O)CC1` [Example 135, (5α,8α)-8-Hydroxy-8-isopropyl-2-[4-((R)-2,2,2-trifluoro-1-hydroxy-ethyl)-phenyl]-2-aza-spiro[4.5]decan-1-one]: the IC50 amounted to 20 nM.

As to `O=C1N(c2ccc(OCC(F)(F)F)cc2)CC[C@]12CC[C@](O)(COCC1CC1)CC2` [Example 256, (5α,8β)-8-[(Cyclopropylmethoxy)methyl]-8-hydroxy-2-[4-(2,2,2-trifluoro-ethoxy)-phenyl]-2-aza-spiro[4.5]decan-1-one], the half-inhibitory concentration (IC50) turned out to be 690 nM.

By IC50 is commonly meant the concentration that gives 50% inhibition.

(Values after patent US8440710B2, “HSL inhibitors useful in the treatment of diabetes” (Hoffmann-La Roche Inc., priority 2009, dated 2013).)
